Consider twelve compounds from ChEMBL document CHEMBL1201862, “PubChem BioAssay data set” (2004).

Molecules are shown by their SMILES. Where a name gives a salt, the structure may show the parent alone.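 In this assay, cells in 96-well plates receive the compound at five concentrations for 48 hours. Endpoints are linearly interpolated between the surrounding concentrations. At the GI50, growth is halved.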 Activity calls are given as the source filed them. Rule as the data show it: active = GI50 up to about 1.1 µM and inactive = higher. Some results are limits rather than exact numbers.

The term GI50 denotes the concentration at which growth is held to half of that of the control.

Among the test systems are 786-0; HOP-62; A498; MDA-N; MDA-MB-435; HT-29; HCT-15; HCT-116; U-251; A549; SK-MEL-28; KM12; UACC-257; OVCAR-8; NCI-H460; IGROV-1; SF-539; SR; NCI-H522.
Experiment in all cases: DTP human tumour cell line panel, 48 h

For `CC1=CC(=O)C[C@]2(C)[C@@H](O)CC(C(C)CO)C[C@@H]12` (stereo partly drawn), the GI50 with 786-0, in the assay on HOP-62, with A498, with MDA-N, with MDA-MB-435 and in the assay on HT-29 was > 100 µM (inactive) in each case. Also, the concentration for 50% growth inhibition (GI50) was greater than 100 µM in the assay with HCT-15; > 100 µM (inactive) in the assay on HCT-116; > 100 µM (inactive) in the assay on U-251; > 100 µM (inactive) with A549; > 100 µM (inactive) in the assay with SK-MEL-28; > 100 µM (inactive) in the assay on KM12. In addition, the GI50 with UACC-257, with OVCAR-8, in the assay with NCI-H460, with IGROV-1 and in the assay with SF-539 was > 100 µM (inactive) each time.
As for `N=c1oc2ccc([N+](=O)[O-])cc2cc1C(=O)NCc1ccccc1`, the GI50 with 786-0 is 24.6 µM (inactive); in the assay with SR, 34.4 µM (inactive); in the assay with HOP-62, 38.5 µM (inactive); with NCI-H522, 12.8 µM (inactive); in the assay on MDA-MB-435 it was 23.1 µM (inactive); in the assay with HT-29, 18.5 µM (inactive). Also, the 50% growth inhibitory concentration (GI50) in the assay on HCT-15 was 17.8 µM; with HCT-116, 16.3 µM (inactive); in the assay on U-251, 28 µM (inactive); in the assay on A549, 57.1 µM (inactive); with SK-MEL-28, 20.3 µM (inactive); in the assay with KM12 it was 14.3 µM (inactive). Further, the GI50 is 19.8 µM (inactive) with UACC-257; 15.2 µM (inactive) in the assay on OVCAR-8; 41 µM (inactive) in the assay on NCI-H460; 12.3 µM (inactive) in the assay with IGROV-1; 17.7 µM (inactive) in the assay on SF-539.
For `CCOC(=O)c1c(NC(=O)c2cccs2)sc2c1CCC2`, the GI50 in the assay with 786-0 was > 100 µM (inactive); in the assay on SR, 73.3 µM (inactive); in the assay on HOP-62 it was > 100 µM (inactive); with A498, > 100 µM (inactive); in the assay with MDA-N, > 100 µM (inactive); in the assay on HT-29, > 100 µM (inactive). In addition, the GI50 was greater than 100 µM in the assay on HCT-15; > 100 µM (inactive) with HCT-116; > 100 µM (inactive) in the assay on A549; > 100 µM (inactive) in the assay on KM12; > 100 µM (inactive) in the assay on UACC-257; > 100 µM (inactive) with OVCAR-8. In addition, the GI50 in the assay with NCI-H460, with IGROV-1 and in the assay on SF-539 was > 100 µM (inactive) in each case.
Turning to `CN(C)c1ccc(/C=C(\NC(=O)c2ccccc2)C(=O)NC(CC(=O)O)C(=O)O)cc1` (stereo not drawn), the GI50 with 786-0 was 41.9 µM (inactive); in the assay on SR it was 75 µM (inactive); with HOP-62 it was 22.9 µM (inactive); with A498 it was > 100 µM (inactive); in the assay with NCI-H522, 17.7 µM (inactive); in the assay with MDA-MB-435 it was > 100 µM (inactive). The GI50 is > 100 µM (inactive) in the assay on HT-29; greater than 100 µM in the assay with HCT-15; > 100 µM (inactive) in the assay with HCT-116; > 100 µM (inactive) in the assay with U-251; > 100 µM (inactive) in the assay with A549; > 100 µM (inactive) in the assay on SK-MEL-28. Moreover, the GI50 in the assay with KM12 was 39.4 µM (inactive); in the assay on UACC-257, > 100 µM (inactive); in the assay on OVCAR-8 it was 68.9 µM (inactive); with NCI-H460, 65.9 µM (inactive); with IGROV-1, > 100 µM (inactive); in the assay on SF-539, > 100 µM (inactive).
For `C#Cc1cccc(Nc2ncnc3cc(OCCOC)c(OCCOC)cc23)c1` [ERLOTINIB HYDROCHLORIDE], the GI50 with 786-0 was 8.91 µM (inactive); in the assay with HOP-62, 31.3 µM (inactive); in the assay with MDA-N, 41 µM (inactive); in the assay on MDA-MB-435, 4.06 µM (inactive); in the assay on HT-29, 27.2 µM (inactive); with HCT-15, 4.76 µM. The GI50 with HCT-116 is 6.05 µM (inactive); with U-251 it was 29.4 µM (inactive); with A549, 1.59 µM (inactive); with SK-MEL-28, > 100 µM (inactive); in the assay on KM12, 18.2 µM (inactive); with UACC-257, > 100 µM (inactive). For the same compound, the GI50 is 7.23 µM (inactive) in the assay with OVCAR-8, 2.31 µM (inactive) in the assay with NCI-H460, 0.0857 µM (active) in the assay on IGROV-1 and 15.4 µM (inactive) with SF-539.
For `CC1(C)OC([C@H](O)CO)C([C@H]2NCCS2)O1` (stereo partly drawn), the GI50 in the assay on 786-0, in the assay with SR, with HOP-62, with A498, with NCI-H522 and in the assay on MDA-MB-435 was > 100 µM (inactive) in each case. The GI50 is > 100 µM (inactive) with HT-29; greater than 100 µM in the assay with HCT-15; > 100 µM (inactive) in the assay with HCT-116; > 100 µM (inactive) in the assay with U-251; > 100 µM (inactive) in the assay with A549; > 100 µM (inactive) in the assay with SK-MEL-28. The GI50 in the assay on KM12, with UACC-257, with OVCAR-8, with NCI-H460 and in the assay on IGROV-1 was > 100 µM (inactive) each time.
Regarding `Cc1c2ccccc2c(/C=N/NC(=O)CSCC(=O)N/N=C/c2c3ccccc3c(C)c3ccccc23)c2ccccc12`, the GI50 in the assay with 786-0 is 20.7 µM (inactive); with HOP-62, 12.9 µM (inactive); in the assay on A498 it was 21.7 µM (inactive); with MDA-MB-435, > 79.6 µM (inactive); with HT-29 it was > 39.3 µM (inactive); in the assay with HCT-15, greater than 100 µM. Further, the GI50 in the assay on HCT-116 is 55.6 µM (inactive); with U-251, 29.6 µM (inactive); in the assay with A549, > 64.1 µM (inactive); with SK-MEL-28, > 60.7 µM (inactive); in the assay on KM12, > 56.4 µM (inactive); in the assay on UACC-257, 31.6 µM (inactive). Also, the GI50 in the assay with OVCAR-8 is 16.2 µM (inactive); in the assay with NCI-H460, > 57.7 µM (inactive); in the assay with IGROV-1 it was > 100 µM (inactive); with SF-539, 18.1 µM (inactive).
Take `FC(F)(F)c1ccc(/N=C/C=C(/Nc2ccc(C(F)(F)F)cc2)c2ccc(Cl)cc2)cc1`: the GI50 was 15.5 µM (inactive) in the assay on 786-0; 3.47 µM (inactive) with SR; 18.2 µM (inactive) in the assay on HOP-62; 11.1 µM (inactive) in the assay on NCI-H522; 6.82 µM (inactive) with MDA-MB-435; 5.04 µM (inactive) in the assay on HT-29. Also, the concentration for 50% growth inhibition (GI50) in the assay on HCT-15 was 4.73 µM; with HCT-116 it was 4.79 µM (inactive); in the assay on U-251, 11.3 µM (inactive); in the assay with A549 it was 12.5 µM (inactive); in the assay on SK-MEL-28, 15.1 µM (inactive); in the assay on KM12 it was 4.71 µM (inactive). Moreover, the GI50 in the assay with UACC-257 was 16.4 µM (inactive); in the assay with OVCAR-8, 15.6 µM (inactive); in the assay on NCI-H460, 4.38 µM (inactive); in the assay on IGROV-1, 2.62 µM (inactive); in the assay with SF-539, 14.2 µM (inactive).
For the compound `COC(=O)/C=C(\C)CC/C=C(\C)CCC(O)C(C)(C)O` (stereo not drawn), the GI50 is 19.4 µM (inactive) in the assay on 786-0; 17.8 µM (inactive) in the assay on SR; 21.8 µM (inactive) with HOP-62; 33 µM (inactive) in the assay on A498; 23.8 µM (inactive) in the assay on MDA-N; 31.4 µM (inactive) with HT-29. Besides, the GI50 in the assay with HCT-15 was 23.3 µM; in the assay on HCT-116, 20.8 µM (inactive); with U-251, 28.2 µM (inactive); in the assay on A549, 34.8 µM (inactive); in the assay with SK-MEL-28, 17.9 µM (inactive); in the assay on KM12, 13.9 µM (inactive). For the same compound, the GI50 was 36.4 µM (inactive) in the assay with UACC-257; 25.1 µM (inactive) in the assay on OVCAR-8; 19.8 µM (inactive) in the assay on NCI-H460; 25.8 µM (inactive) in the assay with IGROV-1; 18.7 µM (inactive) in the assay with SF-539.
On to `CC(C)CCC[C@@H](C)[C@H]1CC[C@H]2[C@@H]3CC[C@H]4C[C@@H](CCC=C(c5cc(Cl)c(O)c(C(=O)O)c5)c5cc(Cl)c(O)c(C(=O)O)c5)CC[C@]4(C)[C@H]3CC[C@]12C`, for which the GI50 in the assay with 786-0, in the assay with SR, with HOP-62, with A498, in the assay with NCI-H522 and in the assay with MDA-MB-435 was > 100 µM (inactive) each time. In addition, the GI50 was > 100 µM (inactive) with HT-29; greater than 100 µM in the assay with HCT-15; > 100 µM (inactive) in the assay with HCT-116; > 100 µM (inactive) with U-251; > 100 µM (inactive) in the assay on A549; > 100 µM (inactive) with SK-MEL-28. The GI50 in the assay on KM12, with UACC-257, in the assay on OVCAR-8, with NCI-H460, in the assay on IGROV-1 and in the assay on SF-539 was > 100 µM (inactive) in each case.
Turning to `O=C1Nc2ccccc2/C1=C\c1c(Cl)nc2n1CCS2`, the GI50 was 23.4 µM (inactive) with 786-0; 29 µM (inactive) in the assay on HOP-62; 18.8 µM (inactive) in the assay on A498; 15.7 µM (inactive) in the assay on MDA-N; 16.2 µM (inactive) in the assay with NCI-H522; 12.6 µM (inactive) in the assay with MDA-MB-435. The GI50 was 31.7 µM (inactive) with HT-29; 22.5 µM with HCT-15; 23.6 µM (inactive) in the assay on HCT-116; 22.1 µM (inactive) in the assay with U-251; 31.3 µM (inactive) in the assay with A549; 32.4 µM (inactive) in the assay on SK-MEL-28. Also, the GI50 was 17.9 µM (inactive) with KM12; 13.7 µM (inactive) in the assay with UACC-257; 34.4 µM (inactive) in the assay with OVCAR-8; 18.2 µM (inactive) in the assay with NCI-H460; 32.7 µM (inactive) in the assay on IGROV-1.
Consider `O=C(O)c1c2c(cc3c1CC1(Cc4ccccc4C1=O)C3)CCC2` (stereo not drawn), for which the GI50 with 786-0 is 47.5 µM (inactive); with SR it was 2.93 µM (inactive); with HOP-62 it was 64.7 µM (inactive); in the assay with A498 it was 33 µM (inactive); in the assay with NCI-H522 it was 22.1 µM (inactive); in the assay with MDA-MB-435, 3.69 µM (inactive). Further, the GI50 in the assay with HT-29 was 14.8 µM (inactive); with HCT-15, 14.8 µM; in the assay with HCT-116, 21.6 µM (inactive); in the assay with U-251, 29 µM (inactive); in the assay on A549 it was 11.1 µM (inactive); with SK-MEL-28, 52 µM (inactive). Besides, the GI50 was 14.4 µM (inactive) in the assay on KM12; 50 µM (inactive) in the assay with UACC-257; 44.9 µM (inactive) in the assay with OVCAR-8; 4.62 µM (inactive) with NCI-H460; > 61.5 µM (inactive) with IGROV-1; 29.7 µM (inactive) with SF-539.
